US20190076357A1 (SHANGHAI WEI ER BIOPHARMACEUTICAL TECHNOLOGY CO., LTD., priority 2016, published 2019)

Assays:
[1] = Solubility in medium chain oil; assay type: physicochemical; conditions: oil or lipid
[2] = Drug-forming properties of paclitaxel palmitate preparations (dose forms and preparation methods); assay type: physicochemical; conditions: drug loading 3 mg/mL
Procedure: 300 mg paclitaxel palmitate, 3.5 g high-purity egg yolk lecithin (EPCS), and 0.3 g DSPE-PEG2000 were weighed out, added with 3 g propylene glycol, and dissolved at 65° C. to obtain an organic phase; 85 g water was weighed out, and dissolved by stirring and heated at 65° C. to obtain an aqueous phase. The organic phase was injected into the aqueous phase by stirring, and mixed to obtain a crude liposome, which was then placed in an extruder, and sequentially extruded through an extrusion film with a pore size of 0.4 μm, 0.2 μm, 0.1 μm, and 0.05 μm, and added with water to 100 ml. pH was adjusted to 4.5 with hydrochloric acid. The filter was sterilized by filtration through a 0.22 μm filter to obtain liposomal paclitaxel palmitate formulations.
0.3 g paclitaxel palmitate and 0.3 g (or 1.5 g, or 3 g, or 6 g, or 9 g) polyethylene glycol monomethyl ether-polylactic acid were weighed out and dissolved in an appropriate amount of acetonitrile. […]

**Q.** What does the source list for `CC(=O)O[C@H]1C(=O)[C@@]2(C)[C@H]([C@H](OC(=O)c3ccccc3)[C@]3(O)C[C@H](OC(=O)[C@H](O)[C@@H](NC(=O)c4ccccc4)c4ccccc4)C(C)=C1C3(C)C)[C@]1(OC(C)=O)CO[C@@H]1C[C@@H]2O` [paclitaxel, Paclitaxel]?
**A.** solubility [1]: < 5000 µg/mL; appearance [2]: completely clarified
